Assays:
Assay in all cases: Bliss excess, mean over the matrix (fraction); higher = more synergy
[1] = system: KARPAS-299 (T-Cell Non-Hodgkin's Lymphoma)
Procedure, shortened: (§1)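 After 24 hours at 37°C and 5% CO2 in 1536-well plates, cells in DMEM/F12 or RPMI plus 10% FBS received two-drug dose matrices for 72 hours. Viability came from CellTiter-Glo 2.0 luminescence and was scaled as inhibition, anchored at 0 by vehicle wells and at 1 by blank wells. Combination Emax is taken as the second-highest inhibition in the matrix, and Bliss excess as the observed combination effect less EA + EB − EA·EB, with EA and EB the single-agent effects.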

[2] = system: RF-48 (B-Cell Non-Hodgkin's Lymphoma)
Procedure, shortened: as §1

[3] = system: MLMA (Other Blood Carcinomas)
Procedure, shortened: as §1

[4] = system: PANC-04-03 (Pancreatic Carcinoma)
Procedure, shortened: as §1

[5] = system: NCI-H727 (Other Solid Carcinomas)
Procedure, shortened: as §1

[6] = system: EFM-19 (Breast Carcinoma)
Procedure, shortened: as §1

NB69 (Neuroblastoma) = system: NB69 (Neuroblastoma)
Procedure, shortened: as §1

[7] = system: MIA-PaCa-2 (Pancreatic Carcinoma)
Procedure, shortened: as §1

[8] = system: EoL-1-cell (Acute Myeloid Leukemia)
Procedure, shortened: as §1

D-263MG (Glioblastoma) = system: D-263MG (Glioblastoma)
Procedure, shortened: as §1

[9] = system: Caov-4 (Ovarian Carcinoma)
Procedure, shortened: as §1

[10] = system: SW13 (Other Solid Carcinomas)
Procedure, shortened: as §1

[11] = system: BT-549 (Breast Carcinoma)
Procedure, shortened: as §1

UACC-62 (Melanoma) = system: UACC-62 (Melanoma)
Procedure, shortened: as §1

[12] = system: AMO-1 (Plasma Cell Myeloma)
Procedure, shortened: as §1

TK10 (Kidney Carcinoma) = system: TK10 (Kidney Carcinoma)
Procedure, shortened: as §1

[13] = system: HOP-62 (Lung Adenocarcinoma)
Procedure, shortened: as §1

Compound: O=C(c1cc(Cc2n[nH]c(=O)c3ccccc23)ccc1F)N1CCN(C(=O)C2CC2)CC1 [Olaparib] + CC1(C)CCC(CN2CCN(c3ccc(C(=O)NS(=O)(=O)c4ccc(NCC5CCOCC5)c([N+](=O)[O-])c4)c(Oc4cnc5[nH]ccc5c4)c3)CC2)=C(c2ccc(Cl)cc2)C1 [Venetoclax] (first compound max 10 µM, 7x7, partner max 1 µM)
- Bliss excess [1]: 0.0277
- Bliss excess [2]: 0.118
- Bliss excess [3]: -0.0299
- Bliss excess [4]: -0.0318
- Bliss excess [5]: -0.0383
- Bliss excess [6]: 0.0138
- Bliss excess (NB69 (Neuroblastoma)): 0.067
- Bliss excess [7]: -0.0208
- Bliss excess [8]: 0.0698
- Bliss excess (D-263MG (Glioblastoma)): -0.0659
- Bliss excess [9]: -0.032
- Bliss excess [10]: -0.0309
- Bliss excess [11]: -0.0516
- Bliss excess (UACC-62 (Melanoma)): -0.007
- Bliss excess [12]: -0.0074
- Bliss excess (TK10 (Kidney Carcinoma)): -0.0727

Compound: O=C(c1cc(Cc2n[nH]c(=O)c3ccccc23)ccc1F)N1CCN(C(=O)C2CC2)CC1 [Olaparib] + CN(CC[C@H](CSC1=CC=CC=C1)NC2=C(C=C(C=C2)S(=O)(=O)NC(=O)C3=CC=C(C=C3)N4CCC(CC4)[C@H](C5=CC=CC=C5C6=CC=C(C=C6)Cl)O)S(=O)(=O)C(F)(F)F)CCO [AZD4320] (first compound max 10 µM, 7x7, partner max 1 µM)
- Bliss excess [1]: 0.109
- Bliss excess [2]: 0.0454
- Bliss excess [3]: -0.0619
- Bliss excess [4]: -0.0555
- Bliss excess [5]: -0.052
- Bliss excess [6]: -0.015
- Bliss excess (NB69 (Neuroblastoma)): 0.0663
- Bliss excess [7]: 0.002
- Bliss excess [8]: 0.0717
- Bliss excess (D-263MG (Glioblastoma)): -0.0672
- Bliss excess [9]: -0.0392
- Bliss excess [10]: -0.0566
- Bliss excess [11]: -0.0365
- Bliss excess (UACC-62 (Melanoma)): -0.0105
- Bliss excess [12]: -0.0111
- Bliss excess (TK10 (Kidney Carcinoma)): -0.0439

Compound: O=C(c1cc(Cc2n[nH]c(=O)c3ccccc23)ccc1F)N1CCN(C(=O)C2CC2)CC1 [Olaparib] + COc1nnc2ccc(N3CCC(c4ccc(OCCN5CCN(C)C(=O)[C@H]5C)cc4)CC3)nn12 [AZD5153] (first compound max 10 µM, 7x7, partner max 1 µM)
- Bliss excess [1]: -0.0654
- Bliss excess [2]: -0.0374
- Bliss excess [3]: -0.0697
- Bliss excess [4]: -0.0698
- Bliss excess [5]: -0.0452
- Bliss excess [6]: 0.0112
- Bliss excess (NB69 (Neuroblastoma)): 0.0035
- Bliss excess [7]: -0.0233
- Bliss excess [8]: -0.0384
- Bliss excess (D-263MG (Glioblastoma)): -0.057
- Bliss excess [9]: -0.0634
- Bliss excess [10]: -0.0183
- Bliss excess [11]: -0.0697
- Bliss excess (UACC-62 (Melanoma)): 0.0387
- Bliss excess [12]: -0.0334
- Bliss excess (TK10 (Kidney Carcinoma)): -0.0301

Compound: O=C(c1cc(Cc2n[nH]c(=O)c3ccccc23)ccc1F)N1CCN(C(=O)C2CC2)CC1 [Olaparib] + Cc1c2c(nn1C)CSCc1cc(n(C)n1)CSc1cc(c3ccccc3c1)OCCCc1c(C(=O)O)n(C)c3c-2c(Cl)ccc13 [AZD5991] (first compound max 10 µM, 7x7, partner max 1 µM)
- Bliss excess [1]: 0.0202
- Bliss excess [2]: -0.108
- Bliss excess [3]: -0.0744
- Bliss excess [4]: -0.0554
- Bliss excess [5]: -0.0269
- Bliss excess [6]: 0.0102
- Bliss excess (NB69 (Neuroblastoma)): -0.0042
- Bliss excess [7]: -0.0205
- Bliss excess [8]: 0.0236
- Bliss excess (D-263MG (Glioblastoma)): -0.0401
- Bliss excess [9]: -0.0215
- Bliss excess [10]: 0.0104
- Bliss excess [11]: -0.0223
- Bliss excess (UACC-62 (Melanoma)): -0.0089
- Bliss excess [12]: -0.0124
- Bliss excess (TK10 (Kidney Carcinoma)): -0.0699

Compound: CCc1c2c(nc3ccc(O)cc13)-c1cc3c(c(=O)n1C2)COC(=O)[C@]3(O)CC [SN-38] + O=C(c1cc(Cc2n[nH]c(=O)c3ccccc23)ccc1F)N1CCN(C(=O)C2CC2)CC1 [Olaparib] (first compound max 0.3 µM, 7x7, partner max 10 µM)
- Bliss excess [1]: 0.0404
- Bliss excess [2]: 0.0259
- Bliss excess [3]: 0.038
- Bliss excess [4]: 0.0215
- Bliss excess [13]: 0.0562
- Bliss excess [5]: -0.0075
- Bliss excess [6]: 0.0496
- Bliss excess (NB69 (Neuroblastoma)): 0.0236
- Bliss excess [7]: 0.0701
- Bliss excess [8]: 0.135
- Bliss excess (D-263MG (Glioblastoma)): 0.0617
- Bliss excess [9]: 0.0748
- Bliss excess [10]: 0.0364
- Bliss excess [11]: 0.0589
- Bliss excess (UACC-62 (Melanoma)): 0.0203
- Bliss excess [12]: 0.0023
- Bliss excess (TK10 (Kidney Carcinoma)): 0.011

Compound: Cc1nc(-c2cn3c(n2)-c2ccc(-c4cnn(C(C)(C)C(N)=O)c4)cc2OCC3)n(C(C)C)n1 [Taselisib] + O=C(Nc1ccc2[nH]nc(-c3ccncc3)c2c1)[C@@H]1CCN(CC(=O)N2CCN(c3ccc(-c4ncccn4)cc3)CC2)C1 [SCH772984] (first compound max 10 µM, 7x7, partner max 5 µM)
- Bliss excess [1]: 0.147
- Bliss excess [2]: 0.102
- Bliss excess [3]: 0.0548
- Bliss excess [4]: 0.0934
- Bliss excess [5]: 0.0252
- Bliss excess [6]: 0.0524
- Bliss excess (NB69 (Neuroblastoma)): -0.0509
- Bliss excess [7]: 0.149
- Bliss excess [8]: 0.191
- Bliss excess (D-263MG (Glioblastoma)): 0.0047
- Bliss excess [9]: 0.0269
- Bliss excess [10]: 0.334
- Bliss excess [11]: 0.047
- Bliss excess (UACC-62 (Melanoma)): -0.035
- Bliss excess [12]: 0.133
- Bliss excess (TK10 (Kidney Carcinoma)): -0.008

Compound: CC1(C)CCC(CN2CCN(c3ccc(C(=O)NS(=O)(=O)c4ccc(NCC5CCOCC5)c([N+](=O)[O-])c4)c(Oc4cnc5[nH]ccc5c4)c3)CC2)=C(c2ccc(Cl)cc2)C1 [Venetoclax] + CS(=O)(=O)CCNCc1ccc(-c2ccc3ncnc(Nc4ccc(OCc5cccc(F)c5)c(Cl)c4)c3c2)o1 [Lapatinib] (first compound max 1 µM, 7x7, partner max 10 µM)
- Bliss excess [1]: 0.0202
- Bliss excess [2]: 0.0123
- Bliss excess [3]: -0.0329
- Bliss excess [4]: -0.0396
- Bliss excess [5]: -0.012
- Bliss excess [6]: -0.002
- Bliss excess (NB69 (Neuroblastoma)): 0.0877
- Bliss excess [7]: 0.0099
- Bliss excess [8]: 0.0351
- Bliss excess (D-263MG (Glioblastoma)): -0.0669
- Bliss excess [9]: -0.0353
- Bliss excess [10]: -0.0672
- Bliss excess [11]: -0.0573
- Bliss excess (UACC-62 (Melanoma)): -0.0044
- Bliss excess [12]: 0.0614
- Bliss excess (TK10 (Kidney Carcinoma)): -0.0141

Reference: the supplement of paper PMC11061612
